# Source: patent US12662491B2 (Redona Therapeutics, Inc., priority 2020, dated 2026)
# Biological target: T1, Zcchc11 enzyme (Homo sapiens, UniProt Q5TAX3)
# T1 construct: made in house; host or cells: HEK293 cells (Zcchc11); E. coli Rosetta II (LIN28A)
# T1 sequence (Q5TAX3 212-1420): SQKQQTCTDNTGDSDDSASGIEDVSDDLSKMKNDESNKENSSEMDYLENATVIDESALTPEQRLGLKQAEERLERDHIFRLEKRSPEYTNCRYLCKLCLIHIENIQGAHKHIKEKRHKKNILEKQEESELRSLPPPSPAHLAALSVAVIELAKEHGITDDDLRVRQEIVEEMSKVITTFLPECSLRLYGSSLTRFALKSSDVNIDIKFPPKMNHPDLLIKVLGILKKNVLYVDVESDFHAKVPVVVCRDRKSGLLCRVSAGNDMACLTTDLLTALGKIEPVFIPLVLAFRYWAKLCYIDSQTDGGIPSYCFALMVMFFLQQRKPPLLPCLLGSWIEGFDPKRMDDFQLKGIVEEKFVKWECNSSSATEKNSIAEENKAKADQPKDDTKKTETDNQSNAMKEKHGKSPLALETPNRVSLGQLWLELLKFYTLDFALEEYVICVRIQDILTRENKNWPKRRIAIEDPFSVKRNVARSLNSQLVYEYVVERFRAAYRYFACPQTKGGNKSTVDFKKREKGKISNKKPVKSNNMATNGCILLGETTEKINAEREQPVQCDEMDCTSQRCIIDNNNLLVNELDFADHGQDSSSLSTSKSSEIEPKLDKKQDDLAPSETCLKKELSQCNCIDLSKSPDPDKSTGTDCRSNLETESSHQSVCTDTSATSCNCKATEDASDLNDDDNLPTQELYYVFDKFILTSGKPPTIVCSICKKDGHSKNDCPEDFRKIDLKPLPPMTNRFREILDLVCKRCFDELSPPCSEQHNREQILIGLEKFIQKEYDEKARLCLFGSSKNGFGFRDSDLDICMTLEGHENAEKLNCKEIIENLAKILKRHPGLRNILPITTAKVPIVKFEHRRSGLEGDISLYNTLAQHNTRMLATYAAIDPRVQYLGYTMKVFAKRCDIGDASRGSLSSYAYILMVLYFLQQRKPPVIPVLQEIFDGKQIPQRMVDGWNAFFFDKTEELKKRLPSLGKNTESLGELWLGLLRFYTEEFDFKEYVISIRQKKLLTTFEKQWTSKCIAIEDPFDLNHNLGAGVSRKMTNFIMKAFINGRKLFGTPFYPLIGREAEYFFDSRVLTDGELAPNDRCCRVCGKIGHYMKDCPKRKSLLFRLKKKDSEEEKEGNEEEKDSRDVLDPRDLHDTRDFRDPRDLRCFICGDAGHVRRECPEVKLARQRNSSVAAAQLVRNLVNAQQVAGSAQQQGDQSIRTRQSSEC
# Assay: TUTase assay (Zcchc11 assay, Lin28a-dependent polyuridylation of pre-let-7)
# Format: biochemical
# Settings: LIN28A 10 nM, Zcchc11 0.2 nM, 5′-fluorescein pre-let-7 miRNA 2 nM, UTP 5 uM, room temperature, 30 minutes pre-incubation; read-out: Potency Lin28a-dep Z11 IC50
# In short: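 Readout: time-dependent quench of 5′-fluorescein pre-let-7 (2 nM) as 3′-rhodamine A20 probe anneals to poly(U) tails. Enzyme 0.2 nM Zcchc11 (res. 212-1420), LIN28A 10 nM, UTP 5 uM; pH 7.3 HEPES, 150 mM KCl, 5 mM MgCl2, RT. 4-parameter IC50; 100% = DMSO, 0% = no UTP.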
row,IC50 [nM],SMILES
1,10000 to 50000,"O=C(O)c1cn2c3cc(c(Cl)cc3c1=O)N1CCC[C@@H]1COc1nc(ccc1Cl)OCCCNc1ccc-2cn1 [Example 55, (R)-26,63-dichloro-24-oxo-21,24-dihydro-5,7-dioxa-11-aza-2(1,7)-quinolina-1(5,2),6(2,6)-dipyridina-3(1,2)-pyrrolidinacycloundecaphane-23-carboxylic acid]"
2,1000 to 10000,"COCCN1CC(C)(n2cc(C(=O)O)c(=O)c3cc(Cl)c(N4CCC[C@@H]4COc4ncccc4Cl)cc32)C1 [Example 37, 6-Chloro-7-[(2R)-2-{[(3-chloropyridin-2-yl)oxy]methyl}pyrrolidin-1-yl]-1-[1-(2-methoxyethyl)-3-methylazetidin-3-yl]-4-oxo-1,4-dihydroquinoline-3-carboxylic acid]"
3,≤ 1000,"O=C(O)c1cn(-c2ccc3c(c2F)CCN3)c2cc(N3CCC[C@@H]3COc3ccccn3)c(F)cc2c1=O [Example 32, (R)-6-fluoro-1-(4-fluoroindolin-5-yl)-4-oxo-7-(2-((pyridin-2-yloxy)methyl)pyrrolidin-1-yl)-1,4-dihydroquinoline-3-carboxylic acid]"

# Same assay, conditions: Lin28a-dependent Zcchc11 (Z11) TUTase activity; read-out: Potency Lin28a-dep Z11 IC50
row,SMILES,IC50 [nM]
1,"CC(C)[C@@H]1COC(=O)N1C[C@H]1CCCN1c1cc2c(cc1Cl)c(=O)c(C(=O)O)cn2C1(C)CC1 [Compound 141, 6-chloro-7-((R)-2-(((R)-4-isopropyl-2-oxooxazolidin-3-yl)methyl)pyrrolidin-1-yl)-1-(1-methylcyclo-propyl)-4-oxo-1,4-dihydro-quinoline-3-carboxylic acid]",> 50000
2,"COc1ccc(COc2ccc(-n3cc(C(=O)O)c(=O)c4cc(F)c(N5CCC[C@@H]5COc5ccncn5)cc43)c(F)c2)cc1 [Compound 139, (R)-6-fluoro-1-(2-fluoro-4-((4-methoxy-benzyl)oxy)phenyl)-4-oxo-7-(2-((pyrimidin-4-yloxy)methyl)pyrrolidin-1-yl)-1,4-dihydro-quinoline-3-carboxylic acid]",≤ 1000
3,"COc1ccc(Cl)c(OC[C@H]2C[C@@H]3C[C@@H]3N2c2cc3c(cc2F)c(=O)c(C(=O)O)cn3-c2ccnc(N)c2)n1 (racemic) [Compound 230, Rac-1-(2-aminopyridin-4-yl)-7-((1R,3S,5R)-3-(((3-chloro-6-methoxy-pyridin-2-yl)oxy)methyl)-2-azabicyclo [3.1.0]hexan-2-yl)-6-fluoro-4-oxo-1,4-dihydro-quinoline-3-carboxylic acid]",≤ 1000
4,"Cc1cccnc1OC[C@H]1CCCN1c1cc2c(cc1C#N)c(=O)c(C(=O)O)cn2-c1cnn(C)c1 [Compound 248, 6-cyano-1-(1-methylpyrazol-4-yl)-7-[(2R)-2-[[(3-methylpyridin-2-yl)oxy]methyl]pyrrolidin-1-yl]-4-oxoquinoline-3-carboxylic acid]",≤ 1000

# Next, values leading:
row,IC50 [nM],SMILES
1,≤ 1000,"O=C(O)c1cn(-c2ccc(O)cc2)c2cc(N3CCC[C@@H]3CNc3ncccc3Cl)c(F)cc2c1=O [Compound 112, (R)-7-(2-(((3-chloropyridin-2-yl)amino)methyl)pyrrolidin-1-yl)-6-fluoro-1-(4-hydroxy-phenyl)-4-oxo-1,4-dihydro-quinoline-3-carboxylic acid]"
2,≤ 1000,"O=C(O)c1cn(-c2ccc3[nH]ncc3c2)c2cc(N3CCC[C@@H]3COc3ncccc3Cl)c(Cl)cc2c1=O [Compound 128, (R)-6-chloro-7-(2-(((3-chloropyridin-2-yl)oxy)methyl)pyrrolidin-1-yl)-1-(1H-indazol-5-yl)-4-oxo-1,4-dihydro-quinoline-3-carboxylic acid]"
3,≤ 1000,"CC1C[C@H](COc2ncccc2Cl)N(c2cc3c(cc2F)c(=O)c(C(=O)O)cn3-c2ccc(N3CC(N(C)C)C3)nc2)C1 (stereo partly drawn) [Compound 330, 7-[(2R)-2-[[(3-Chloropyridin-2-yl)oxy]methyl]-4-methyl-pyrrolidin-1-yl]-1-[6-[3-(dimethyl-amino)azetidin-1-yl]pyridin-3-yl]-6-fluoro-4-oxoquinoline-3-carboxylic acic]"
4,≤ 1000,"CC(C)C1C[C@H](COc2ncccc2Cl)N(c2cc3c(cc2Cl)c(=O)c(C(=O)O)cn3-c2ccc(N3CC(N(C)C)C3)nc2)C1 (mixture of isomers) [Compound 223, Rac-6-chloro-7-((2R)-2-(((3-chloropyridin-2-yl)oxy)methyl)-4-isopropyl-pyrrolidin-1-yl)-1-(6-(3-(dimethyl-amino)azetidin-1-yl)pyridin-3-yl)-4-oxo-1,4-dihydro-quinoline-3-carboxylic acid]"

# Same assay, conditions: Lin28a-dependent Zcchc11 (Z11) TUTase assay; read-out: Potency Lin28a-dep Z11 IC50
row,IC50 [nM],SMILES
1,≤ 1000,"CN(C)C1CN(c2ccc(-n3cc(C(=O)O)c(=O)c4cc(Cl)c(N5CCC[C@@H]5COc5ccnn5C)cc43)cn2)C1 [Example 580, (R)-6-chloro-1-(6-(3-(dimethylamino)azetidin-1-yl)pyridin-3-yl)-7-(2-(((1-methyl-1H-pyrazol-5-yl)oxy)methyl)pyrrolidin-1-yl)-4-oxo-1,4-dihydroquinoline-3-carboxylic acid]"
2,≤ 1000,CN(C)C1CN(c2ccc(-n3cc(C(=O)O)c(=O)c4cc(F)c(N5CCC[C@@H]5COc5ncccc5Cl)c(F)c43)cn2)C1 [Example 613]
3,≤ 1000,"O=C(O)c1cn(-c2ccccn2)c2cc(N3CCC[C@@H]3COc3ncccc3Cl)c(Cl)cc2c1=O [Example 499, (R)-6-chloro-7-(2-(((3-chloropyridin-2-yl)oxy)methyl)pyrrolidin-1-yl)-4-oxo-1-(pyridin-2-yl)-1,4-dihydroquinoline-3-carboxylic acid]"
4,≤ 1000,"N#Cc1cc2c(=O)c(C(=O)O)cn(-c3ccc(N)nc3)c2cc1N1CCC[C@@H]1COc1ncccc1Cl [Example 513, (R)-1-(6-aminopyridin-3-yl)-7-(2-(((3-chloropyridin-2-yl)oxy)methyl)pyrrolidin-1-yl)-6-cyano-4-oxo-1,4-dihydroquinoline-3-carboxylic acid]"
5,1000 to 10000,"Cc1c(F)cccc1-n1cc(C(=O)O)c(=O)c2cc(F)c(N3CCC[C@@H]3COc3ccccn3)cc21 [Example 397, (R)-6-fluoro-1-(3-fluoro-2-methylphenyl)-4-oxo-7-(2-((pyridin-2-yloxy)methyl)pyrrolidin-1-yl)-1,4-dihydroquinoline-3-carboxylic acid]"
6,≤ 1000,"CN(C)C1CN(c2ccc(-n3cc(C(=O)O)c(=O)c4cc(F)c(N5CCC[C@]5(C)COc5ncccc5Cl)c(F)c43)cn2)C1 [Example 634, (R)-7-(2-(((3-chloropyridin-2-yl)oxy)methyl)-2-methylpyrrolidin-1-yl)-1-(6-(3-(dimethylamino)azetidin-1-yl)pyridin-3-yl)-6,8-difluoro-4-oxo-1,4-dihydroquinoline-3-carboxylic acid]"
7,1000 to 10000,"O=C(O)c1cn(-c2cc(F)ccc2F)c2cc(N3CCC[C@@H]3COc3ccccn3)c(F)cc2c1=O [Example 387, (R)-1-(2,5-difluorophenyl)-6-fluoro-4-oxo-7-(2-((pyridin-2-yloxy)methyl)pyrrolidin-1-yl)-1,4-dihydroquinoline-3-carboxylic acid]"
8,≤ 1000,"CN(C)C1CN(c2ccc(-n3cc(C(=O)O)c(=O)c4cc(Cl)c(N5[C@@H](COc6nc(OC7CC7)ccc6Cl)C[C@H]6C[C@H]65)cc43)cn2)C1 [Example 672, 6-chloro-7-((1R,3R,5R)-3-(((3-chloro-6-cyclopropoxy-pyridin-2-yl)oxy)methyl)-2-azabicyclo[3.1.0]hexan-2-yl)-1-(6-(3-(dimethylamino)azetidin-1-yl)pyridin-3-yl)-4-oxo-1,4-dihydroquinoline-3-carboxylic acid]"
9,≤ 1000,"CO[C@H]1CCN(c2cc3c(cc2Cl)c(=O)c(C(=O)O)cn3-c2ccc(N3CC(N(C)C)C3)nc2)[C@H]1COc1ncccc1Cl [Example 669, 6-chloro-7-((2S,3S)-2-(((3-chloropyridin-2-yl)oxy)methyl)-3-methoxypyrrolidin-1-yl)-1-(6-(3-(dimethylamino)azetidin-1-yl)pyridin-3-yl)-4-oxo-1,4-dihydroquinoline-3-carboxylic acid]"
